Consider 2 molecules from patent publication US20220193111A1, “Method of Treatment” (The University Court of the University of Edinburgh, priority 2018, published 2022).

Data set [1] relates to HUVECs. The experiment in a line: BrdU incorporation assay (EC proliferation). The data set is classed as cell-based, human. The settings on record: transfected 48 hrs (mimic 25 nM, anti-miR 75 mM). On the procedure:
(§1) Lipofectamine RNAiMAX (Thermo Fisher Scientific) was used to transfect HUVECs with miR-148b mimic, anti-miR-148b and mimic or anti-miR control (25 nM and […], respectively final concentration) or with siRNA targeting SMAD2 (20 nM final concentration), according to the manufacturer's instructions. jetPEI-HUVECs (Polyplus) was used to transfect HUVECs with DNA plasmids. The following functional assays were performed: BrdU incorporation assay using Cell Proliferation colorimetric assay (Roche); Matrigel assay with HUVECs was performed as previously described using BD Matrigel Basement Membrane Matrix (BD Biosciences)^53.
(Uptake of a labelled nucleoside into DNA is a usual measure of proliferation.)

Data set [2] deals with HUVECs. The experiment in a line: Matrigel assay (tube formation). In kind it is cell-based, human. Conditions: transfected 48 hrs (mimic 25 nM, anti-miR 75 mM). On the procedure:
as §1

In data set [3] the test system is skin wounds. The data set can be described thus: Mouse model of skin wound healing (full-thickness excisional wounds). In kind it is in vivo. The settings on record: for vessel density (CD31 positive vessels) / wound perfusion (laser Doppler): topical 1 μg/wound; for wound closure / expression of targets TGFB2 and SMAD2 in wound: topical 1 μg/wound every second day; for wound closure: 7 days; for wound perfusion (laser Doppler): 5 days post wounds. How it is done: All experiments involving mice were performed in accordance with the guidance and the operation of Animals (Scientific Procedures) Act 1986 and prior approval of the UK Home Office and the University of Edinburgh ethic committee. Skin wound healing protocol has been performed as described before^54-56. CD-1 female mice (7-9-week-old) (n=8 per group) were randomly assigned a treatment group and anaesthetized with isofluorane. Two full-thickness excisional wounds were made to the shaved dorsal skin. Full-thickness excisional wounds were made by picking up a fold of skin and using a sterile, disposable 5-mm biopsy punch (Kai Industries), resulting in generation of one wound on each side of the midline. Control oligonucleotides (scramble sequence), miR-148b mimic, Cy3-labeled miR-148b mimic or anti-miR-148b or SMAD2 siRNA (1 μg/wound) were delivered topically by pipette into the wound cavity (10 μl in a vehicle of 30% Pluronic F-127 gel [is liquid at 4° C. but solidifies at body temperature]; Sigma Aldrich). Mimics were initially delivered after 3 days, whereas anti-miR and siRNA were delivered immediately after wounding. The treatment was performed every second day for 7 days. Wounds were photographed using an Olympus camera on days 0, 2, 4, 6, and 7 after wounding. Wound areas were calculated as previously described^54, 55. To this aim, two perpendicular diameters of the wound were measured by using a Vernier caliper and wound area was calculated using a standard formula for the area of an ellipse (semi-major diameter X semi-minor diameter X Pi). The superficial blood flow of the wounds was sequentially analysed by colour laser Doppler (Colour laser Doppler, Moor, UK), and the ratio of blood flow between the mimic or anti-miR or siRNA treated and the control treated wounds was calculated. Wound size and Doppler analysis was performed in blinded fashion.
Wounds were harvested, prepared, and analysed essentially as previously described^54-56. At days 5 or 7 post-wounding, wounds were harvested and fixed in 10% buffered formalin (16 h at 4° C., Sigma) for embedding in paraffin. Sectioning was done through the wound beyond the midpoint and wound centres as identified by staining with Haematoxylin and Eosin (Sigma). Sections were deparaffinised, rehydrated and stained with rat anti-mouse polyclonal CD31 (Abcam, ab28364, 1:50), α-SMA (Sigma, A2547, 1:100) rabbit anti-mouse FSP-1 (Abcam, ab41532, 1:50), and SLUG (Abcam, […], 1:200); all antibodies overnight at 4° C.
Zeiss LSM 780 Confocal Microscope (Zeiss). Vascular density in wounds was counted after staining for CD31 and α-SMA. Ten fields per section/animal (n=8 animal; 400× magnification) were randomly examined and averaged to analyse the number of CD31-positive blood vessels in the wound edges. Images collection was performed manually. Image analysis was performed using Image J software as previously reported in^54. Vascular density is expressed per square millimetre. EndMT of ECs was assessed by FSP-1 and SLUG staining combined with CD31 staining. CD31-FSP-1 and CD31-SLUG double positive vessels are expressed as percentage of positive vessels. For analysis of fibrosis: the slides of the staining were examined and photomicrographed in a blinded fashion using a light microscope (Axioscope 2; Zeiss). Six images per slide were captured at 400× magnification for both histological staining. The colour deconvolution ImageJ software was used to evaluate the percentage of red staining which indicate the presence of collagen fibres in the tissue. The morphometric analysis corresponding to the red colours was measured as the percentage of total pixels in each image, using the Threshold (Image J software).

“anti-miR-148b: miR-148b inhibitor oligonucleotide; suitable inhibitor: hsa-miR-148b-3p miRCURY LNA inhibitor, CAAAGTTCTGTGATGCACTG (SEQ ID NO: 6) (commercial miRCURY LNA inhibitor, LNA positions not given here)”: the “proliferation of HUVECs (BrdU incorporation)” value in data set [1] is recorded as “decreased”. For the same molecule, in data set [2], the “tube formation / tubulogenesis in Matrigel assay (total tubules length)” value is “did not cause a change”. Moreover, in data set [3] (day 7 after wounding), the “collagen deposition (PicroSirius Red)” value was “did not detect any increase”; the “expression of targets TGFB2 and SMAD2 in wound” value is “increased”. For the same molecule, the “CD31-FSP-1 or CD31-SLUG double-positive vessels in wound edge” value in data set [3] (delivered immediately after wounding and every two days, day 7) is recorded as “comprised of CD31-FSP-1 or CD31-SLUG double-positive vessels”. In addition, the “skin vessels that demonstrated mesenchymal transition (EndMT)” value in data set [3] (following delivery to the wounds) is “around 20%”. For the same molecule, in data set [3], the “vessel density (CD31 positive vessels)” value is “without effecting”, the wound closure result is on record as “markedly attenuated” and the “wound perfusion (laser Doppler)” value was “without effecting”. Moreover, the “total number of FSP-1 positive cells in wounds” value in data set [3] (vs control oligonucleotide-treated wounds, day 7) was “increase”.

B1: miR-148b mimic: miR-148b mimic oligonucleotide; in a particular embodiment has SEQ ID NO: 1, the human precursor miR-148b sequence (nucleic acid)
chain: CAAGCACGAUUAGCAUUUGAGGUGAAGUUCUGUUAUACACUCAGGCUGUGGCUCUCUGAAAGUCAGUGCAUCACAGAACUUUGUCUCGAAAGCUUUCUA
modifications: listed as RNA, chemistry not given here
For B1, the “proliferation of HUVECs (BrdU incorporation)” value in data set [1] is “significantly increased”. Further, the “tube formation / tubulogenesis in Matrigel assay (total tubules length)” value in data set [2] is on record as “significantly elevated”. In addition, in data set [3], the “vessel density (CD31 positive vessels)” value is reported as “significant increase”, the wound closure entry is recorded as “accelerated” and the “wound perfusion (laser Doppler)” value is “significant increase”. Besides, the “expression of targets TGFB2 and SMAD2 in wound” value in data set [3] (day 7 after wounding) is reported as “decreasing”. Further, the “miR-148b expression in wound” value in data set [3] (topical, starting 3 days after wounding, day 7) is on record as “increased”.
